Measurements published in patent publication US20250040545A1, “USE OF SYNERGISTIC COMPOSITIONS BASED ON ZOXAMIDE AND CYFLUFENAMID AS FUNGICIDES IN THE AGRONOMIC FIELD” (Gowan Crop Protection Limited, priority 2023, published 2025).
Values joined by “and” are separate entries in the source; they are usually repeats but may differ in a detail not shown here. Equal entries are not always repeated.

Tests used:
Format in all cases: cell-based
Conditions in all cases: single active ingredient
[1] = tested on: Sclerotinia minor; experiment: In vitro antifungal synergy assay, growth inhibition in 96-well plates (absorbance), Sclerotinia minor
Procedure: (§1) Compositions consisting of the active ingredients Zoxamide (A) and Cyflufenamid (B) in different weight ratios were tested to evaluate their in vitro synergistic antifungal activity against the following phytopathogenic fungi: Botrytis cinerea, Sclerotinia minor and Venturia inaequalis by comparing them with the single active ingredients (A) and (B).
(§2) The strains in pure culture are kept and stored at 4° C. in a refrigerator on potato dextrose agar (PDA) nutrient substrates. The fungal inoculum was prepared (which, depending on the species of the pathogen, could be a suspension of conidia or a mycelial homogenate) for carrying out the synergy assays.
(§3) For the strains not easily sporulating in vitro, i.e. Sclerotinia minor and Venturia inaequalis, six to eight pieces of mycelium, taken from actively growing cultures, are transferred into a grinding egg containing 6 ml of double-concentration potato dextrose broth (PDB). and some metal balls. The suspension is homogenized with a Pulverisette 23 mini-mill (Fritsch GmbH).
(§4) In the compositions tested, the weight ratios of Zoxamide (A) with respect to Cyflufenamid (B) range from 500:1 to 1:100. For both molecules tested, a stock solution in dimethyl sulfoxide (DMSO) at 160,000 mg/l was prepared which was then serially diluted in sterile demineralized water to obtain the solutions to be tested at concentrations double with respect to the final doses. More specifically, the compositions of the two fungicide molecules (A) and (B) were tested following a checkerboard matrix in order to have, in this way, all possible combinations of the two fungicides within the weight ratios described above.
(§5) Synergy assays were performed in 96-well plates: 50 μl of inoculum were mixed with 50 μl of solution of the compositions consisting of the two active molecules (A) and (B) in each well using the Eppendorf Multipette® System E3 serial dispenser.
(§6) Three wells were used as replicates for each concentration/active ingredient composition.
(§7) All pathogen strains were grown in untreated control wells containing 50 μl of fungal suspension and 50 μl of sterile demineralized water. The inoculated multi-well plates are incubated at 22° C. for 72 hours or 96 or 120 depending on the type of pathogen.
(§8) The sensitivity to the molecules was evaluated as growth inhibition of the fungus and measured in terms of absorbance immediately before and after the incubation period.
(§9) The absorbance was measured for each well using the Infinite® F50 Absorbance Reader (Tecan Group Ltd) spectrophotometer at 405 nm (for mycelial inoculums) and at 492 nm (for conidic inoculums).
(§10) For each strain, the percentage of growth inhibition (GIP) caused by each of the active-ingredient concentrations was calculated using the following formula: […]
(§11) wherein At72-120 and At0 are respectively the absorbances of the treated well and of the untreated control measured at the end and at the beginning of the incubation period. GIP data were used for calculating the potential synergistic effect of the compositions tested using the formula proposed by Colby (1967):
(§12) [formula] • wherein: • GIPt=GIP expected of the active molecule A and B tested at dose p for molecule • A and dose q for molecule B: • GIPa=GIP expected from the molecule A tested at dose p; • GIPb=GIP expected from the molecule B tested at dose q.
(§13) The synergistic effect of the two molecules is indicated when the effectiveness of the mixed combination of A+B […], is higher than the expected effectiveness calculated with the Colby equation (GIPa+b/GIPt>1), as described in literature in Colby, S. R. (1967): “Calculating synergistic and antagonistic responses of herbicide combinations”, Weeds, 15 (1), pages 20-22.

[2] = tested on: Venturia inaequalis; experiment: In vitro antifungal synergy assay, growth inhibition in 96-well plates (absorbance), Venturia inaequalis
Procedure: as §1, §2, §3, §4, §5, §6, §7, §8, §9, §10, §11, §12, §13

[3] = tested on: Botrytis cinerea; experiment: In vitro antifungal synergy assay, growth inhibition in 96-well plates (absorbance), Botrytis cinerea
Procedure: as §1, §2
For the in vitro sporulating strain, i.e. Botrytis cinerea, the conidic suspension was prepared starting from a culture grown on PDA after 4-5 days of incubation in a thermostat at 24° C. to stimulate its sporulation. The conidia were collected in 1 mL of double-concentration PDB and counted under a microscope with a counting chamber to obtain a final inoculum of 4×10^4 conidia/mL.
as §4, §5, §6, §7, §8, §9, §10, §11, §12, §13

| SMILES | Effect A, Effect B (GIP) ([1]; dose 0.1 mg/l) | Effect A, Effect B (GIP) ([1]; dose 1 mg/l) | Effect A, Effect B (GIP) ([1]; dose 5 mg/l) | Effect A, Effect B (GIP) ([1]; dose 10 mg/l) | Effect A, Effect B (GIP) ([2]; dose 0.1 mg/l) | Effect A, Effect B (GIP) ([2]; dose 1 mg/l) | Effect A, Effect B (GIP) ([2]; dose 5 mg/l) | Effect A, Effect B (GIP) ([2]; dose 10 mg/l) | Effect A, Effect B (GIP) ([2]; dose 50 mg/l) | Effect A, Effect B (GIP) ([2]; dose 100 mg/l) | Effect A, Effect B (GIP) ([3]; dose 0.1 mg/l) | Effect A, Effect B (GIP) ([3]; dose 1 mg/l) | Effect A, Effect B (GIP) ([3]; dose 5 mg/l) | Effect A, Effect B (GIP) ([3]; dose 50 mg/l) | Effect A, Effect B (GIP) ([3]; dose 100 mg/l) | Effect A, Effect B (GIP) ([1]; dose 50 mg/l) | Effect A, Effect B (GIP) ([1]; dose 100 mg/l) | Effect A, Effect B (GIP) ([3]; dose 10 mg/l) |
| --- | --- | --- | --- | --- | --- | --- | --- | --- | --- | --- | --- | --- | --- | --- | --- | --- | --- | --- |
| O=C(Cc1ccccc1)N/C(=N\OCC1CC1)c1c(C(F)(F)F)ccc(F)c1F [Cyflufenamid] | 3.7% | 10.2% | 17.8% | 23.4% | 1.2% | 5.5% | 10.3% | 12.7% | 15.2% and 12.7% | 18.3% and 18.0% | 1.7% | 4.3% | 10.6% | 49.4% | 60.2% |  |  |  |
| CCC(C)(NC(=O)c1cc(Cl)c(C)c(Cl)c1)C(=O)CCl (centres unmarked) [Zoxamide] | 2.5% | 29.1% |  | 37.6% |  | 78.0% | 78.8% | 80.0% | 80.1% | 84.5% and 84.0% |  | 5.6% |  | 47.3% | 56.9% | 58.2% | 70.3% | 31.2% |
